Experiment [1] deals with edematogenic response caused by CFA. Put plainly: Paw edema of chronic inflammation induced by CFA in mice. It is filed as in vivo, male Swiss mice. The settings on record: 100 mg/kg oral, 1x a day for 7 days, starting 1 week after CFA; mice (FIG. 9). As for the experimental part: (§1) To perform the experiments, male Wistar rats (180 to 200 g) or male Swiss mice (25 to 30 g) were used, coming from the animal house of the Federal University of Pelotas (UFPEL; Pelotas, RS). We used 5 to 8 animals per group. The animals were kept in Room 108, located in Block E, of the Vivarium of Building 12, of the PUCRS, on ventilated shelves outfitted with incoming and outgoing air filters (brand Alesco), with controlled temperature (22±1° C.) and light/dark cycle of 12 h (lights turned on at 7:00 a.m.; lights turned off at 7:00 p.m.). Within the shelves, the animals were kept in cages suitable for rodents, filled with pine shavings (changed three times a week). The animals received pelletized ration (brand Nuvilab) and filtered water (filter brand Jojaco) ad libitum. The experiments were conducted in the Applied Pharmacology Laboratory I, located in Block C, Building 12, of the PUCRS. During the experimental procedures, the laboratory temperature was maintained at 22±1° C. […] In this series of experiments, the depressive behavior associated with chronic inflammation in mice was evaluated. […] The increase in volume was measured by plethysmometer, two weeks after the application of the CFA. The difference between the volume of the right and left paws was quantified (in ml) and taken as an indicator of edema. […] The time of immobility was measured for a period of 6 min. […]

Experiment [2] concerns edema of the paw caused by carrageenan. Put plainly: Model of acute inflammation by carrageenan in the paw of rats. It is filed as in vivo, male Wistar rats. As to conditions: 100 mg/kg oral; for inhibition of the edema caused by carrageenan: therapeutic, 120 min after carrageenan, rats (FIG. 5).
Experiment [3] deals with edema caused by CFA. As to the kind of experiment: Model of polyarthritis induced by CFA in rats. It is filed as in vivo, male Wistar rats. The settings on record: 100 mg/kg oral, twice a day for 8 days, from day 14 to 21 after CFA; rats (FIG. 7).
For experiment [4], the system named is depressive behavior associated with the chronic inflammation caused by CFA. As to the kind of experiment: Depressive behavior associated with chronic inflammation in mice (tail suspension, time of immobility). It is filed as in vivo, male Swiss mice. As to conditions: 100 mg/kg oral, 1x a day for 7 days, starting 1 week after CFA; immobility over 6 min; mice (FIG. 9). As for the experimental part: as §1

Consider 1 compound from patent US8912234B2, “Composition containing resveratrol and/or derivatives thereof and plant oil, process for producing said composition, nutraceutical and/or pharmaceutical product, and method for enhancing the potential of resveratrol” (UNIAO Brasileria de Educacao e Assistencia—Mantenedora da …, priority 2009, dated 2014).

For the compound `Oc1ccc(C=Cc2cc(O)cc(O)c2)cc1` [resveratrol, 3,5,4′-trihydroxystilbene], in experiment [1], the “percentage of reduction of the edematogenic response caused by CFA” value amounted to 42±4%. In addition, the “inhibition of the edema of the paw caused by carrageenan” value in experiment [2] (preventive, 30 min prior to carrageenan, vs saline control, rats (FIG. 4)) is given as 31±7%. For the same compound, the “inhibition of the edema caused by carrageenan” value in experiment [2] (at 180 min) is given as 35±8%; in experiment [2] (at 240 min), 45±9%. The “inhibition of the formation of edema caused by CFA” value in experiment [3] stood at 17±5%. Also, in experiment [4], the “depressive behavior (time of immobility)” value is “expressively reduced”.
